The target of data set [1] is T1, NS5B enzyme, HCV genotype 1b (Con1) (Hepatitis C virus genotype 1b, UniProt Q9WMX2).
T1 construct: Each untagged protein was expressed with an 18 amino acid C-terminal truncation to enhance the solubility; made in house; host or cells: E. coli BL21(DE3), pET21a vector
The data set can be described thus: HCV NS5B RdRp enzyme assay. The data set is classed as biochemical. Particulars: 1b NS5B enzyme, 24 h preincubation, [33P]-GTP incorporation. Here is the method: The cDNA encoding NS5B proteins of HCV genotype 1b (Con1), a genotype 1b variant with amino acid 316 mutated from cysteine to asparagine, and genotype 2a (JFH-1), were cloned into the pET21a expression vector. Each untagged protein was expressed with an 18 amino acid C-terminal truncation to enhance the solubility. The E. coli competent cell line BL21(DE3) was used for expression of the protein. Cultures were grown at 37° C. for ˜4 hours until the cultures reached an optical density of 2.0 at 600 nm. The cultures were cooled to 20° C. and induced with 1 mM IPTG. Fresh ampicillin was added to a final concentration of 50 μg/mL and the cells were grown overnight at 20° C.
Cell pellets (3 L) were lysed for purification to yield 15-24 mgs of purified NS5B. […]
HCV NS5B RdRp enzyme assay. […] The newly synthesized RNA product was precipitated by 10% TCA and quantified on the Packard Top Count NXT. IC50 values for compounds were determined using seven different [I]. IC50 values were calculated from the inhibition using the four-parameter logistic formula y=A+((B−A)/(1+((C/x)^D))), where A and B denote minimal and maximal % inhibition, respectively, C is the IC50, D is hill slope and x represents compound concentration.

The subject of data set [2] is genotype 1b (Con-1) HCV replicon. The data set can be described thus: HCV replicon luciferase assay. In kind it is cell-based. The conditions noted are these: Hepatitis C virus, Huh-7, 72 h. The procedure: The cell lines used to evaluate compounds consist of a human hepatocyte derived cell line (Huh-7) that constitutively expresses a genotype 1b (Con-1) HCV replicon or a genotype 1b (Con-1) HCV replicon with an asparagine replacing the cysteine at amino acid 316, or a genotype 2a (JFH-1) replicon, containing a Renilla luciferase reporter gene. These cells were maintained in Dulbecco's modified Eagle medium (DMEM) containing 10% FBS, 100 U/mL penicillin/streptomycin and 1.0 mg/mL G418.
To evaluate compound efficacy, titrated compounds were transferred to sterile 384-well tissue culture treated plates, and the plates were seeded with HCV replicon cells (50 μL at a density of 2.4×10^3 cells/well) in DMEM containing 4% FBS (final DMSO concentration at 0.5%). After 3 days incubation at 37 C, cells were analyzed for Renilla Luciferase activity using the EnduRen substrate (Promega cat #E6485) according to the manufacturer's directions. […] The plates were incubated for at least 1 h at 37° C. then read on a Viewlux Imager (PerkinElmer) using a luminescence program. […]
To assess cytotoxicity of compounds, Cell Titer-Blue (Promega) was added to the EnduRen-containing plates and incubated for at least 4 h at 37° C. The fluorescence signal from each well was read using a Viewlux Imager. All CC50 values were calculated using the four-parameter logistic formula.
For orientation: A replicon is a self-replicating genome or part of one, used to study replication in cells.

The test system of data set [3] is HCV. Particulars: cited from earlier work.

T1 sequence (Q9WMX2 2420-2992): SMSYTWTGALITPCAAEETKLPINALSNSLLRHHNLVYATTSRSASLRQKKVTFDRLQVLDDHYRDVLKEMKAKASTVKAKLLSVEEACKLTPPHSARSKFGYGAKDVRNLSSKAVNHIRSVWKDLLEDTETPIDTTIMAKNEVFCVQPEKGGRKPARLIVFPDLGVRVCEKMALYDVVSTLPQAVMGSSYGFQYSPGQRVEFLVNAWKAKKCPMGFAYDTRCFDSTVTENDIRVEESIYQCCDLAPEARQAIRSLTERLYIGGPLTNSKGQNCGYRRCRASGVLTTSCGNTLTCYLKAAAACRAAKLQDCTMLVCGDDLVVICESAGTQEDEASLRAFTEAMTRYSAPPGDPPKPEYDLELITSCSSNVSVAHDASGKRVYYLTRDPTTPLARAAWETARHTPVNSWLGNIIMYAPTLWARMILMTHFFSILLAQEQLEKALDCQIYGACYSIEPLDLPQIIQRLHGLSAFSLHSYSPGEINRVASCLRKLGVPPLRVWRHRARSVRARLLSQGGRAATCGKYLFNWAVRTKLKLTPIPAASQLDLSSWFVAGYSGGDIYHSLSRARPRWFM

Regarding `CC[C@@H](C)c1cc2oc(-c3ccc(F)cc3)c(C(=O)NC)c2cc1-c1cccc(C(=O)NC(C)(C)c2ncon2)c1` (single isomer, unassigned) [Enantiomer 2], in data set [1], the IC50 – broadly, the concentration at which inhibition is half-maximal – came to 2.3 nM. The response in data set [2] was half-maximal at 5.5 nM (EC50).
Take `CNC(=O)c1c(-c2ccc(F)cc2)oc2cc(N(CCO)S(C)(=O)=O)c(C3CC3)cc12` [HCV-796]: the “toxicity during extended dosing of the combination regimens” value in data set [3] (patients, combined with interferon and ribavirin) is “hepatic toxicity”. Also, the “HCV RNA levels in patients” value in data set [3] (single agent: transient decrease then rebound during dosing) was “reduce HCV RNA levels”.

Source of the values: US9556162B2, “Compound for the treatment of hepatitis C” (Bristol-Myers Squibb Company, priority 2013, dated 2017).
